Experiments:
PAMPA permeability = type: in vitro ADME
Description: The PAMPA (Parallel Artificial Membrane Permeability Assay) assay was used as an in vitro model of passive, transcellular permeability. An artificial membrane immobilized on a filter was placed between a donor and acceptor compartment. At the start of the test, drug was introduced in the donor compartment. Following the permeation period, the concentration of drug in the donor and acceptor compartments was measured using UV spectroscopy.

[1] = Hepatic microsome stability, mouse; type: in vitro ADME
Text: The microsomal stability assay is commonly used to rank compounds according to their metabolic stability. This assay addresses the pharmacologic question of how long the parent compound will remain circulating in plasma within the body.

[2] = Stability in PBS at room temperature; type: physicochemical; details: 48 hours, 23° C.
Description: Stability was measured under two distinct conditions with ML291: at room temperature (23° C.) in PBS (no antioxidants or other protectants and DMSO concentration below 0.1%) and with 50% acetonitrile added to account for challenges with solubility of the compound in PBS alone. Stability was determined as the loss of compound with time over a 48 hour period with a minimum of 6 time points.

Q: Which results are given for `O=C(Nc1ccc(S(=O)(=O)N2CCC(Cl)CC2)cc1)c1ccc([N+](=O)[O-])o1` [ML291, N-(4-((4-chloropiperidin-1-yl)sulfonyl)phenyl)-5-nitrofuran-2-carboxamide]?
A: PAMPA Permeability, Pe (PAMPA permeability; Donor pH 5.0, Acceptor pH 7.4): 291 ×10⁻⁶ cm/s; PAMPA Permeability, Pe (PAMPA permeability; Donor pH 6.2, Acceptor pH 7.4): 329 ×10⁻⁶ cm/s; PAMPA Permeability, Pe (PAMPA permeability; Donor pH 7.4, Acceptor pH 7.4): 245 ×10⁻⁶ cm/s; PAMPA permeability (PAMPA permeability; donor pH 5.0, 6.2 and 7.4): good permeability; Hepatic Microsome Stability (% Remaining after 1 hour @ 37° C.) ([1]; Mouse): 0.02%; metabolism in mouse liver homogenates ([1]; within 1 hour): almost completely metabolized; percent remaining compound in PBS with 50% acetonitrile [2]: 100%; percent remaining compound in PBS ([2]; no additives): 11.44%

From patent US9732067B2, “Compounds and methods for activating the apoptotic arm of the unfolded protein response” (University of Kansas, priority 2012, dated 2017)
